One series relates to PDE IV. In words: PDE IV inhibition at a single concentration. It counts as biochemical. To be noted: human; concentration 100 μM. From the text:
Assays conducted with standard procedures, e.g. as described by Cortij et al., Br. J. Pharmacol. 108:562, 1993 or Nicholsen CD et al., Trends Pharmacol. Sci. 12:19, 1991 have yielded the following results for compounds figuring among the examples envisaged within the framework of the invention described herein.

In another series the test system is PDE4 Activity (L)PDE4. In words: IC50 for inhibition of PDE IV activity. It counts as biochemical. The settings on record: origin Human. From the text:
(§1) The following determination of IC50 for inhibition of PDE IV activity and competition at the rolipram receptor, conducted with standard processes, e.g. as described by Duplantier A. J. et al., J. Med. Chem. 39: 120, 1996 and by Thorphy T. J. et al., J Pharmacol. Exp. Ther., 263: 1195, 1992 have yielded the following results for compounds figuring among the examples envisaged within the framework of the invention described herein

Series [1] concerns Rolipram receptor (H)PDE4. As to the kind of experiment: competition at the rolipram receptor. In kind it is binding, Mouse. The settings on record: ratio IC50 (H)PDE4 / IC50 (L)PDE4.
Text: as §1
(§2) N.C. means value not calculable because of no inhibition at the highest test concentration, however it means low affinity for rolipram receptor.

In series [2] the target is T1, Rolipram receptor (H)PDE4.
T1 construct: IC50(μM) Rolipram receptor (H)PDE4; other: origin Mouse brain
As to the kind of experiment: competition at the rolipram receptor. The settings on record: origin Mouse brain. In kind it is binding, Mouse.
Text: as §1, §2

The subject of a further series is PDE1. In words: PDE selectivity, PDE1. It counts as biochemical, bovine. From the text:
(§3) These assays have yielded the following results for compounds figuring among the examples envisaged within the framework of the invention described herein.

The target in a further series is PDE2 (Homo sapiens, UniProt O00408). As to the kind of experiment: PDE selectivity, PDE2. In kind it is biochemical.
Text: as §3

A further series has as its system PDE3. In words: PDE selectivity, PDE3. In kind it is biochemical, human.
Text: as §3

A further series deals with PDE4. As to the kind of experiment: PDE selectivity, PDE4. In kind it is biochemical, human.
Text: as §3

In a further series the target is PDE5 (Homo sapiens, UniProt O76074). In words: PDE selectivity, PDE5. In kind it is biochemical.
Text: as §3

A further series concerns PDE6. In words: PDE selectivity, PDE6. It counts as biochemical, bovine.
Text: as §3

A value given as a limit tells only on which side of the number the result lay.

What is called % inhibition is the share of the control response that was lost under treatment. Read a low % inhibition as a response near the control. The IC50 is the concentration needed to halve the response being measured. Broadly, the melting point is the temperature of the solid-liquid transition. What is called inhibition is the relative decrease from the control value, in per cent. Higher therefore signals strong suppression.

Sequence of PDE2 (O00408 whole entry): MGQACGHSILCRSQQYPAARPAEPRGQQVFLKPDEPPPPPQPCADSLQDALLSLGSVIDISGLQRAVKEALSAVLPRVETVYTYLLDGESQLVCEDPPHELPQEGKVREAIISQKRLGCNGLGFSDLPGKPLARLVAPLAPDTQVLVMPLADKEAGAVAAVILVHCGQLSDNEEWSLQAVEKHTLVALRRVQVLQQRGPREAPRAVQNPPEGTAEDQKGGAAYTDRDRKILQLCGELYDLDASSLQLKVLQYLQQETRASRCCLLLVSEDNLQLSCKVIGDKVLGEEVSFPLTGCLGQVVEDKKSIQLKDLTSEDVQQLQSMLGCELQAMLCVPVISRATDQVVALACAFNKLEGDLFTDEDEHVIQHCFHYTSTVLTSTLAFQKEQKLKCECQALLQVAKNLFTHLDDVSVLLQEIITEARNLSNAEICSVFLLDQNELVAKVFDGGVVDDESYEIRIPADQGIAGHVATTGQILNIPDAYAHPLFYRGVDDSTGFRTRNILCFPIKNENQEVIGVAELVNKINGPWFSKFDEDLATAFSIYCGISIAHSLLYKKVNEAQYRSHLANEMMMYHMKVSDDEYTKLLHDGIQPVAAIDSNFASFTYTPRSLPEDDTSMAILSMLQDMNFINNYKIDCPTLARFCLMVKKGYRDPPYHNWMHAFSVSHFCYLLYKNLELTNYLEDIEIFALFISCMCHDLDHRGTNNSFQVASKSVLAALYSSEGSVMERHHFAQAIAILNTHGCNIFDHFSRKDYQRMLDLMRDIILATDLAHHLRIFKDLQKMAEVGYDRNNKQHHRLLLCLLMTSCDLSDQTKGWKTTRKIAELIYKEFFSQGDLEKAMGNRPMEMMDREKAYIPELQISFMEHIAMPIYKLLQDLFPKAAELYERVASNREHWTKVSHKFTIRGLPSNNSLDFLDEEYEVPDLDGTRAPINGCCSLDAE

In the case of `COC(=O)C(CC(=O)NO)Cc1ccc(OC)c(OC2CCCC2)c1` (racemic) [ST 1505, (R,S)-3-methoxycarbonyl-4-(3-cyclopentyloxy-4-methoxyphenyl)butane-hydroxamic acid], the “% inhibition” value in the series on PDE IV is recorded as 86%. In addition, the half-inhibitory concentration (IC50) in the series on PDE4 Activity (L)PDE4 amounted to 4.7 µM; in series [2], 3.5 µM. Moreover, the H/L in series [1] was determined as 0.74.

Turning to `COC(=O)/C(=C/c1ccc(OC)c(OC2CCCC2)c1)CC(=O)O` [ST 1503, (3E)-4-[3-(cyclopentyloxy)-4-methoxyphenyl]-3-(methoxycarbonyl)-3-butenoic acid], in the series on PDE4 Activity (L)PDE4, the IC50 was found to be 6.2 µM.

`COC(=O)C(CC(=O)O)Cc1ccc(OC)c(OC2CCCC2)c1` (centres unmarked) [ST 1504]: the “% inhibition” value in the series on PDE IV worked out at 84%. Further, the IC50 is 8.7 µM with PDE4 Activity (L)PDE4 and > 10 µM in series [2]. Moreover, the H/L in series [1] is recorded as >1.15.

Regarding `COc1ccc(C(=O)CCC(=O)O)cc1OC1CCCC1` [ST 1689, 4-[3-(cyclopentyloxy)-4-methoxyphenyl]-4-oxo-butanoic acid], the melting point was in the range of 111 to 113 °C.

As to `COC(=O)/C(=C/c1ccc(OC)c(OC2CCCC2)c1)CC(=O)NO` [ST 1701, methyl (2E)-3-[3-(cyclopentyloxy)-4-methoxyphenyl]-2-[2-(hydroxyamino)-2-oxoethyl]-2-propenoate], the “% inhibition” value in the series with PDE IV came out at 88%. Besides, the IC50 with PDE4 Activity (L)PDE4 worked out at 1.2 µM; in series [2] it was 0.615 µM. In addition, the H/L in series [1] is listed as 0.51. The “% PDE inhibition at 100 μM PDE1 (bovine)” value in the series on PDE1 is 42%. For the same compound, the inhibition at 100 µM against PDE2 came to 16%; at PDE5 it was 30%. The “% PDE inhibition at 100 μM PDE3 (human)” value in the series with PDE3 was 52%. Besides, the “% PDE inhibition at 100 μM PDE4 (human)” value in the series with PDE4 amounted to 94%. For the same compound, the “% PDE inhibition at 100 μM PDE6 (bovine)” value in the series with PDE6 worked out at 58%.

Turning to `COC(=O)C/C(=C\c1ccc(OC)c(OC2CCCC2)c1)C(=O)OC` [ST 1945, methyl (3E)-3-methoxycarbonyl-4-(3-cyclopentoxy-4-methoxyphenyl)-3-butenoate], the 50% inhibitory concentration (IC50) with PDE4 Activity (L)PDE4 was 0.19 µM; in series [2] it was 0.571 µM. The H/L in series [1] came to 0.33.

Consider `COC(=O)/C(=C/c1ccc(OC)c(OC2CCCC2)c1)CCC(=O)O` [ST 1977, (4E)-5-[3-(ciclopentyloxy)-4-methoxyphenyl]-4-(methoxycarbonyl)-4-pentenoic acid], for which the values for the IC50 (in the series with PDE4 Activity (L)PDE4; in series [2]) were 1.3 µM and 9.27 µM, respectively. The H/L in series [1] is 7.13.

Source of the values: US7169808B2, “Compounds useful for the preparation of medicaments with phosphodiesterase IV inhibitory activity” (Sigma-Tau Industrie Farmaceutiche Riunite S.p.A., priority 2000, dated 2007).
